Measurements reported in PMC8079714 (Nature Communications, 2021).
Several values for one entry are separate records, joined by “and”; a condition that tells them apart may be missing. Equal values may be shown once.

test system: N. benthamiana leaves; conditions: in vivo

Row | Substance | sites showing a visible cell death response out of total infiltrated sites
1 | TADFDPIFKPEAWQSVAAGQSFQITWDAPA [FsSNP30rec] | 9/10 and 27/30
2 | TPDFDPIYTPKKDEVVAAGSPLVITWDAPA [CpSNP30rec] | 9/10 and 10/10 and 28/30
3 | W44A (FDPIYTPNSGETIDAGAPYTVTA) | 0/5 and 0/15
4 | NPDFNPVNKPTPNEKIPAGSTYKIEWTAPA [VdSNP30rec] | 1/10 and 3/30
5 | TPGFHALVKPVRDEVIPAGKPYTLEWQPGG [MoSNP30rec] | 1/10 and 3/30
6 | TAGFDAISVPTNGQVVQVGDVLDITWAPNS [BcSNP30rec] | 10/10 and 30/30
7 | DPIYTPNSGETIDAGAPYTVTW [SGP123-44rec] | 10/10 and 30/30
8 | VADFDPVLTPTNWEEVSAGKTLEITWQAKP [FvSNP30rec] | 0/10 and 0/30
9 | TAGFDAISVPTNGQVVKVGDVLDITWAPNA [SsSNP30rec] | 9/10 and 10/10 and 28/30
10 | TAGFDAVLTPAKDEVVAAGSSYTITWDYSS [VmSNP30rec] | 0/10 and 0/30
